Data set [1] is described as follows: pharmacokinetics after intravenous and oral administration in dogs. The data set is classed as in vivo. The note with it: dog, plasma. The text has this: After a single intravenous administration of the drug of Formula I as the monomaleate salt to mice and dogs, plasma concentrations of Formula I decreased in a biphasic manner.
Data set [2] can be described thus: in-vitro plasma protein binding, humans. The data set is classed as in vitro ADME. To be noted: human, 0.05 to 50 μg/mL. As for the experimental part: (§1) The in-vitro plasma protein binding of the drug of Formula I was independent of concentration over the concentration range of 0.05 to 50 μg/mL and was 87.2-89.1% in mice; 87.6-89.2% in rats; 88.3-92.0% in rabbits; […] in dogs; 97.0-97.6% in monkeys; and 96.3-96.6% in humans.

A short description of data set [3]: in-vitro plasma protein binding, rabbits. The data set is classed as in vitro ADME. The note with it: rabbit, 0.05 to 50 μg/mL. As for the experimental part: as §1
Data set [4] can be described thus: 4-week repeat dose toxicity in cynomolgus monkey. The data set is classed as in vivo.
Data set [5] can be described thus: Example 2 multi-dose study: safety. The note with it: up to 20 mg daily for ten (10) to fourteen (14) days, healthy volunteers. The data set is classed as in vivo, human. The method, then: A double-blind, placebo-controlled, dose rising study was performed in healthy male and female volunteers. Each dose cohort received either placebo or active treatment as an oral suspension once daily for fourteen (14) consecutive days. The dose of study drug was prepared and administered as described in Example 1 above. The doses administered in this multiple dose study were based on the safety and tolerability assessment of the doses administered in Example 1.
Based on the results of Example 1, the starting dose was 3 mg. Based on the safety and tolerability results from Example 1, the dose was scheduled to be escalated to 10, 20, 50 and 100 mg per day for 14 consecutive days. Successive dose cohorts were not treated until the previous cohort completed 14 days of treatment and the safety follow-up visit on Day 21.

Data set [6] can be described thus: in-vitro plasma protein binding, rats. To be noted: rat, 0.05 to 50 μg/mL. The data set is classed as in vitro ADME. The method, then:
as §1

Data set [7] in a line: QT interval in cynomolgus monkeys. The data set is classed as in vivo. To be noted: 100 and 1000 mg/kg, appears related to decreased heart rate from acclimation, not drug related.
For data set [8], the system named is human c-Mpl-Ba/F3 cells. Kind of data set: proliferation of cultured human c-Mpl-Ba/F3 cells. To be noted: concentration-dependent; maximum effect similar to that of rhTPO. The data set is classed as cell-based.
In data set [9] the test system is liver microsomal enzymes. Kind of data set: metabolism by human liver microsomal enzymes. The data set is classed as in vitro ADME. (Liver microsomes are a subcellular fraction often used to study metabolism.)
For data set [10], the target named is 2D6 (Homo sapiens, UniProt P10635). Kind of data set: inhibition of human liver cytochrome P450 2D6. The note with it: human liver cytochrome P450 isoenzyme. The data set is classed as in vitro ADME.
Chain of 2D6 (P10635 whole entry): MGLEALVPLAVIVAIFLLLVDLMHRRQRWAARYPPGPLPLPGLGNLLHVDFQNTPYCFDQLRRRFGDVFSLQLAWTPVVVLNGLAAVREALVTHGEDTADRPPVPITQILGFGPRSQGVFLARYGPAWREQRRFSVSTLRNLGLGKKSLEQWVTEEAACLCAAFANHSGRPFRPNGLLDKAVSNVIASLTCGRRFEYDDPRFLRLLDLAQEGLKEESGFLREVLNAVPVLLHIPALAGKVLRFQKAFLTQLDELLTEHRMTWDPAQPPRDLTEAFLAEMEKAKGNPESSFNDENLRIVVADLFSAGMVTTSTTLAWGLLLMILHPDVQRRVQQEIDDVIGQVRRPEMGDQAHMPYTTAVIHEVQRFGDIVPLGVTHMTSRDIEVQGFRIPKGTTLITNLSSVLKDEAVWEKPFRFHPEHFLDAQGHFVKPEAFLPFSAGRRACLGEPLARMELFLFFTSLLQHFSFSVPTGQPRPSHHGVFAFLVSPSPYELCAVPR
The test system of data set [11] is platelet count. Kind of data set: Example 1 single dose study: pharmacodynamics (platelet count). The data set is classed as in vivo, human. The method, then: (§2) A single-center, randomized, double-blind, dose-rising study to determine the safety, pharmacokinetics, and pharmacodynamics of single doses of 1-(3-chloro-5-{[4-(4-chlorothiophen-2-yl)-5-(4-cyclohexylpiperazin-1-yl)thiazol-2-yl]carbamoyl} pyridin-2-yl)piperadine-4-carboxylic acid (Formula I) in normal healthy volunteers was performed. The starting dose of the drug of Formula I was 1 mg (expressed as free base). Successive dose cohorts received 3, 10, 20, 50, 75 and 100 mg. The drug substance in the form of the monomaleate salt was suspended in Ora-Plus® (purified water, microcrystalline cellulose, sodium carboxymethylcellulose, xanthan gum, citric acid, sodium phosphate, simethicone, potassium sorbate and methylparaben), a commercially available oral suspending vehicle manufactured by Paddock Laboratories, Inc. Minneapolis, Minn. The Ora-Plus® was diluted with purified water, USP in a 1:1 suspension before being used to suspend the drug substance powder in preparation for oral administration. Prior to administration, 30 mL of the Ora-Plus®/water vehicle was added to each bottle, shaken and then consumed by the subject for each of the 3, 10, 50 and 75 mg dose cohorts. This was followed by an additional 30 mL of vehicle that was added to the bottle as a wash solution, shaken and then consumed by the subject. For the 20 mg and 100 mg dose cohorts, 60 mL of the Ora-Plus®/water vehicle was added to two (2) separate bottles containing the appropriate dose of drug (30 mL each bottle), shaken then consumed by the subjects. This was followed by an additional 60 mL of vehicle that was added as 30 ml to each bottle as a wash solution, shaken and then consumed by the subject.
A minimum of 9 subjects (male and female healthy volunteers) were enrolled in each cohort. The active group within each cohort included male and female volunteers. Three subjects per cohort received placebo. Each successive dose cohort was treated no sooner than 10 days after the previous group had received the study drug. […]

In data set [12] the test system is platelet function. As to the kind of experiment: platelet function (platelet aggregation and activation). The data set is classed as cell-based, human.
The test system of data set [13] is liver microsomal enzymes. As to the kind of experiment: metabolism by dog liver microsomal enzymes. The data set is classed as in vitro ADME.
The nature of data set [14]: Example 1 single dose study: safety. The data set is classed as in vivo, human. The note with it: single dose up to 100 mg, healthy volunteers. As for the experimental part: as §2, with “For the 20 mg and 100 mg dose cohorts, 60 mL of the Ora-Plus®/water vehicle was added to two (2) separate bottles containing the appropriate dose of drug (30 mL each bottle), shaken then consumed by the subjects. This was followed by an additional 60 mL of vehicle that was added as 30 ml to each bottle as a wash solution, shaken and then consumed by the subject.” left out

Data set [15] is described as follows: cardiovascular and respiratory system effects in the conscious dog. The data set is classed as in vivo. To be noted: up to a dose of 300 mg/kg.

Each structure is given as a SMILES string.

Consider `O=C(Nc1nc(-c2cc(Cl)cs2)c(N2CCN(C3CCCCC3)CC2)s1)c1cnc(N2CCC(C(=O)O)CC2)c(Cl)c1` [Formula I, 1-(3-chloro-5-{[4-(4-chlorothiophen-2-yl)-5-(4-cyclohexylpiperazin-1-yl)thiazol-2-yl]carbamoyl}pyridin-2-yl)piperadine-4-carboxylic acid], for which the half-life in data set [1] (dogs, single intravenous administration as the monomaleate salt, read-out: terminal elimination half-life (t1/2) (converted)) is 162 min. In addition, the bioavailability (in general, dose-corrected exposure relative to a reference, in per cent) in data set [1] (oral administration, read-out: absolute bioavailability) was determined as 52%. Moreover, the fraction unbound (in general, the share of the substance not bound to proteins or other matrix) was 0.034 to 0.037 in [2], 0.08 to 0.117 in data set [3] and 0.108 to 0.124 in data set [6]. Further, the “changes in the gastric mucosa” value in data set [4] (cynomolgus monkey, repeat dosing 4 weeks, 3, 10, 100, 1000 mg/kg/day) was “necrosis of the surface epithelium and atrophy of the fundic glands and edema and inflammatory infiltrates in the lamia propria of the fundus”. In addition, the “muscle degeneration/necrosis in femoral, lower thigh or multifides muscles” value in data set [4] (cynomolgus monkey, repeat dosing 4 weeks, lesions partly present before dosing and in a control) is reported as “one or more monkeys in all dose groups”. The “CK and aldolase levels” value in data set [4] (cynomolgus monkey, elevated levels also present prior to the first dose) is “Elevated levels of CK and aldolase”. Moreover, the “reversibility of gastric mucosa changes” value in data set [4] (high dose monkeys, on drug withdrawal) was “not entirely”. Moreover, the “tolerability (drug-related clinical or laboratory adverse experiences)” value in data set [5] and in data set [14] was “well tolerated” each time. For the same molecule, the QT interval result in data set [7] was “prolongation of QT interval was reported”. Further, in data set [8], the “proliferation of cultured human c-Mpl-Ba/F3 cells” value is given as “stimulates the proliferation”. Further, the “metabolism by liver microsomal enzymes” value in [9] and in data set [13] was “does not appear to be metabolized” in each case. Also, in [10], the “inhibition of CYP2D6” value is listed as “did not inhibit”. In [11] (single dose), the “dose at which the PD limit (5 subjects with >50% increase in platelet count) was reached” value is 100 mg. The “dose-concentration-response relationship for changes in platelet count” value in data set [11] (single dose, increasing drug concentrations and exposure) is on record as “linear increases in platelet counts over baseline”. The “single dose after which statistically significant increases in platelet counts were evident” value in data set [11] (single oral dose, healthy volunteers) is given as at least 10 mg. Besides, in data set [12], the “platelet function as measured by platelet aggregation and activation” value is reported as “does not appear to effect platelet function”. The “cardiovascular or respiratory system effects” value in data set [15] is reported as “No cardiovascular or respiratory system effects were observed”.

Source of the values: US20110224226A1, “COMPOSITIONS AND METHODS FOR INCREASING BLOOD PLATELET LEVELS IN HUMANS” (AKARX, Inc., priority 2006, published 2011).
